Assays:
wound in rat = assay: Healing effect on wound in rat; type: in vivo, SD rats; conditions: TABLE 7, 15 days; for Healing days: control 15.1 ± 0.22; for Healing Index: control 188.3 ± 18.2
Protocol: Healing Effect on wound in rat
Male 7-week SD rats were classified into groups each consisting of 6-7 rats, such that all the groups have substantially the same average weight. The experiment was performed on the rats according to a method of Tsurumi et al. (Oyo Yakuri, Vol. 7, pp833, 1973). Initially, the rats were subjected to an anesthesia with pentobarbital. The hair of the back of each rat was clipped, and the skin was disinfected with 70% ethanol. Then, the skin was lightly pulled and punched off in a direction from the right to the left by means of a punch whose diameter is 10 mm, so as to form two open wounds on portions of the back of the rat which are symmetrical to each other with respect to the center line of the back. The compounds of Examples indicated in the following TABLES 7 and 8 were used as specimen drugs, and orally administered once a day to each of the rats with doses indicated in the TABLES 7 and 8. The oral administration continued for 15 consecutive days, beginning from the first day when the wounds were formed on the back of each rat.
To clarify the healing effect on the wounds, an Healing Index and healing days were obtained in the following manner. Initially, the lengths of a major axis and a minor axis of each wound formed on the back were measured using calipers. On the basis of the measured length values, the area of each wound was calculated as the area of an ellipse. The Healing Index was obtained according to a method of Nakano et al. (Oyo Yakuri, Vol. 47, pp29, 1994). Described more specifically, a ratio of area of each wound was chronologically represented in a graph, and an area of the lower part of a curve in the graph during a period from the fifth day to the fifteenth day after the wounds were formed was obtained as the Healing Index. […] The healing days were obtained as the number of the days that were required for the wounds to be completely covered with regenerated epidermises. As for the wound that was healed in more than 15 days, the healing days were obtained as 16 days.

[1] = test system: indomethacin-induced gastric ulcer; assay: Inhibitory effect on indomethacin-induced gastric ulcer; type: in vivo, SD rats; conditions: 30 mg/kg oral, 30 min before indomethacin
Protocol: Inhibitory effect on indomethacin-induced gastric ulcer
Male SD rats of 7-week age were fasted for 24 hours, with a fast of water beginning in early morning of the day when the experiments were performed. The rats were classified into groups each consisting of eight rats, such that all the groups have substantially the same average weight. Before giving indomethacine to the rats, the compounds of the Examples indicated in TABLE 5 were orally administered as specimen drugs to the rats, with a dose of 30 mg/kg. Thirty minutes later, indomethacin was orally administered to each specimen rat, with a dose of 25 mg/kg (1 mL/rat). Seven hours later, the specimen rats were sacrificed by ether, and the gastric mucosa of each rat was semi-fixed with 2% formalin. The longitudinal length of the damaged area of gastric mucosa was measured, and the anti-ulcer percent values of the individual specimen drugs were calculated on the basis of the sum of the measured length values of each group of specimen rats, in the same manner as in EXAMPLE 19.

[2] = test system: acetic acid-induced gastric ulcer; assay: Healing effect on acetic acid-induced gastric ulcer of rat; type: in vivo, Donryu rat; conditions: 25 mg/kg oral two times a day, 10 days
Protocol: Healing effect on acetic acid-induced gastric ulcer of rat
A male Donryu rat of 7-week age was subjected to abdominal incision to expose the stomach, with pentobarbital used as an anesthesia. Using a metal ring having an inside diameter of 10 mm, 200 μL of glacial acetic acid was applied, for 60 seconds, with a serosa-side of a boundary area between the antrum and the corps. The abdomen of the specimen rat subjected to the glacial acetic acid was closed by an operation, and the rat was then fed in a normal way. The compound prepared in Example 2, that is, 2-(2-dimethylaminobenzylsulfinyl)-5,5-dimethylimidazoline-4-thione was used as the specimen drug. This compound was orally administered to the specimen rat two times a day (at 9:00 a.m. and 5:00 p.m.), each time with a dose of 25 mg/kg, beginning on the day following the day on which the glacial acetic acid was applied to the rat. The oral administration continued for 10 consecutive days, with a total of 20 administrations. On the day following the last day of the administration, the specimen rat was sacrificed by ether, and the ulcer portion of the rat was semi-fixed with formalin. The surface area of the ulcer portion was measured. The healing percent (%) calculated on the basis of the measured surface area was 40.8%.

[3] = Single-dose toxicity study; type: in vivo; conditions: mouse, in vivo, oral, male ddY mice, two weeks
ddY mice = assay: Single-dose toxicity study; type: in vivo; conditions: oral, male ddY mice, two weeks
[4] = test system: hydrochloric acid-ethanol-induced gastric ulcer; assay: Inhibitory effect on hydrochloric acid-ethanol-induced gastric ulcer; type: in vivo, SD rats; conditions: 30 mg/kg oral, 30 min before hydrochloric acid-ethanol
Protocol: Inhibitory effect on hydrochloric acid-ethanol-induced gastric ulcer
Male SD rats of 7-week age were fasted for 24 hours, with a fast of water beginning in early morning of the day when the experiments were performed. The rats were classified into groups each consisting of five rats, such that all the groups have substantially the same average weight. Before giving hydrochloric acid-ethanol to the rats, the compounds of the Examples indicated in TABLE 4 were orally administered as specimen drugs to the rats, with a dose of 30 mg/kg. Thirty minutes later, 1 mL of 98% ethanol containing 200 mM of hydrochloric acid was orally administered to each specimen rat. One hour later, the specimen rats were sacrificed by ether, and the gastric mucosa of each rat was semi-fixed with 2% formalin. The longitudinal length of the damaged area of the gastric mucosa was measured, and the anti-ulcer percent values of the individual specimen drugs were calculated on the basis of the sum of the measured length values of each group of the specimen rats, in the same manner as in Example 19.

[5] = test system: gastric acid secretion in a pylorus ligated rat; assay: Inhibitory effect on the gastric acid secretion in a pylorus ligated rat; type: in vivo, SD rats; conditions: 10 mg/kg intraduodenal; 4 hours
Protocol: Inhibitory effect on the gastric acid secretion in a pylorus ligated rat Male 7-week SD rats were fasted for 24 hours, with a fast of water beginning in early morning of the day when the experiments were performed. The rats were classified into groups each consisting of five rats, such that all the groups have substantially the same average weight. The experiments were performed according to a method of Shay et. al. (Shay, H. et. al., Gastroenterology, Vol. 5, pp43, 1945). Described more specifically, each of the rats was subjected to a light anesthesia by ether, and the hair of the abdomen of each rat was clipped. Then, the abdomen was incised over a length of 1.5 cm along the center line downwards from a portion 1 cm below the xiphoid of the rat, and the stomach was taken out of the body. A portion connecting the pylorus and the duodenum was ligated by suturing thread. […] After the administration, the skin of the abdominal muscle and abdomen was sutured. The rats were kept in cages and fasted for 4 hours with a fast of water. Then, the rats were sacrificed by ether, and the stomach of each rat was removed. The gastric content was obtained from a small hole formed through the stomach of each rat and was collected in a test tube. […] An amount of supernatant was measured as a volume of gastric acid, and a total acidity of the gastric acid was also measured. A volume of gastric acid inhibitory percent (%) and a total acidity inhibitory percent (%) were calculated in the same manner as the ulcer inhibitory percent was calculated. The total acidity was obtained as a product of the amount of gastric acid secreted for 4 hours and the acidity per 1 mL of the gastric acid which was subjected to neutralization titration by an aqueous solution of 0.01N sodium hydroxide.

[6] = test system: water-immersion restraint stress-induced gastric ulcer; assay: Inhibitory effect on water-immersion restraint stress-induced gastric ulcer; type: in vivo, SD rats; conditions: 10 mg/kg oral, 30 min before stress
Protocol: Inhibitory effect on water-immersion restraint stress-induced gastric ulcer
Male 7-week SD rats were fasted for 24 hours, with a fast of water beginning in early morning of the day when the experiments were performed. The rats were classified into groups each consisting of five rats, such that all the groups have substantially the same average weight. Thirty minutes before giving a stress to the rats, the compounds of the Examples indicated in TABLE 3 were orally administered as specimen drugs to the rats, with a dose of 10 mg/kg. The rats were then kept in stress cages, and were given a stress by immersing the cages in a water bath kept at a substantially constant temperature of 23°±1° C., such that the water level was at the height of the xiphoid of the rats. Seven hours later, the specimen rats were sacrificed by ether, and the gastric mucosa of each rat was semi-fixed with 2% formaline. The longitudinal length of the damaged area of the gastric mucosa was measured. A sum of the measured length values of the rats of each group was calculated as an ulcer index. An anti-ulcer or ulcer inhibitory percent (%) was calculated as {1-(ulcer index of each group of specimen rats)/(ulcer index of non-specimen group)}×100.

SMILES | Healing days (wound in rat; 50 mg/kg oral once a day) | Healing Index (wound in rat; 50 mg/kg oral once a day) | Healing days (wound in rat; 100 mg/kg oral once a day) | Healing Index (wound in rat; 100 mg/kg oral once a day) | Inhibitory Percent (ulcer) [1] | healing percent (ulcer surface area) [2] | LD50 at 336 h [3] | LD50 95% confidence limits (ddY mice) | Inhibitory Percent (ulcer) [4] | Total acidity Inhibitory percent [5] | Volume of Gastric acid Inhibitory percent [5] | Inhibitory Percent (ulcer) [6]
CN(C)c1ccccc1C[S+]([O-])C1=NC(C)(C)C(=S)N1 (stereo not drawn) [Example 2, 2-(2-dimethylaminobenzylsulfinyl)-5,5-dimethylimidazolin-4-thione] | 13.8 ± 0.39 days | 153.0 ± 13.2 | 14.6 ± 0.44 days | 146.7 ± 12.4 | 100% | 40.8% | 952 mg/kg | 791 to 1138 mg/kg |  |  |  | 
CCC1(C)N=C([S+]([O-])Cc2ccccc2N(C)C)NC1=S (stereo not drawn) [Example 16, 2-(2-dimethylaminobenzylsulfinyl)-5-ethyl-5-methylimidazolin-4-thione] |  |  |  |  | 97.2% |  |  |  | 98.6% | 77.4% | 41.6% | 
CC1(C)N=C([S+]([O-])Cc2cccc3cccnc23)NC1=S (stereo not drawn) [Example 4, 2-(8-quinolinylmethylsulfinyl)-5,5-dimethylimidazolin-4-thione] |  |  |  |  |  |  |  |  | 90.3% |  |  | 
CCN(C)c1ccccc1C[S+]([O-])C1=NC(C)(C)C(=S)N1 (stereo not drawn) [Example 15, 2-(2-N-ethyl-N-methylaminobenzylsulfinyl)-5,5-dimethylimidazolin-4-thione] |  |  |  |  | 99.2% |  |  |  | 97.4% | 91.3% | 60.1% | 99.9%

— patent US5750552A, “Imidazoline derivative, possible tautomer thereof, and vulnerary including such derivative or tautomer” (Arax Co., Ltd., priority 1995, dated 1998)
